In patent US20220016273A1, “COMPOSITION FOR DIAGNOSIS OF FUNGAL INFECTION” (CNCURE BIOTECH INC., priority 2019, published 2022):

How the values were obtained:
[1] = system: A. fumigatus lung infection; assay: microPET imaging in A. fumigatus lung infection small animal model; type: in vivo; conditions: Balb/c mice infected with A. fumigatus in the lung; 7.4 MBq tail vein; image 2 hours after injection (FIG. 4)
Experimental: (§1) The present inventors created a lung infection model by the following method. First, after preparing Balb/c mice 8 weeks old (female), 150 mg/kg 100 μl of cyclophosphamide was intraperitoneally injected 4 days before infection. After 3 days, 100 μl of 250 mg/kg of cortisone acetate was injected into the subcutaneous fat layer, and the mice were anesthetized after 24 hours. And then the lung infection model mice were prepared by the injection of 70 μl of A. fumigatus fungal solution (about 1.5×10^7 conidia) through the nasal cavity.
(§2) The present inventors acquired microPET images 2 hours after injecting the [^18F]FDS (7.4 MBq) according to the present invention into the tail vein of the infected mice, and the acquired images were reconstructed by using the 3D-ordered subset expectation maximization (3D-OSEM) method.
The present inventors confirmed the fungal selective uptake ability of [^18F]FDS of the present invention using small animal infection models. To this end, [^18F]FDS was administered intravenously to Balb/c mice infected with A. fumigatus in the lung prepared in Example 4, and microPET images were acquired and analyzed.

C. albicans = assay: In vitro uptake of [^18F]FDS by cultured strains (gamma counter); type: cell-based, Candida albicans; conditions: 1×10^8 per mL, 0.74 MBq, incubated 2 hours (FIG. 3)
Experimental: (§3) The present inventors cultured the fungus using the following method. Specifically, Aspergillus fumigatus was smeared on potato dextrose agar medium (or YAG, yeast extract agar medium), and cultured at 30° C. for 2-3 days. Thereafter, the culture plate was washed with sterile physiological saline and Tween 20 [10 μl (1 drop)] and filtered with sterile gauze (or 40 μm-pore insertion filter). Then, the pellet was recovered using a centrifuge and the number of fungi was confirmed to prepare a bacterial solution of 1.5×10^9 conida/mL. Rhizopus arrhizus isolated from the patient was also cultured in the same way as A. fumigatus, prepared a fungal solution, and used for in vitro experiments. For Candida albicans, a strain isolated from the patient was also used, and cultured in SDA medium for 2-3 days. After recovering from the medium, a fungal solution was prepared.
(§4) The present inventors performed in vitro experiments on the strain cultured in Example 2 above. Specifically, each strain was prepared to be 1×10^8 per 1 mL of medium, and 1 mL was dispensed into tubes. The experiments were performed three times according to the experimental period, and 0.74 MBq of [^18F]FDS synthesized as described above was injected and incubated for 2 hours in the incubator. […] After washing twice with phosphate buffer, the filtered fungi were collected and the intake was measured with a gamma counter. […]

fungi = assay: In vitro uptake of [^18F]FDS, fungi compared with bacteria; type: cell-based; conditions: in vitro experiment; fungi vs bacteria
Experimental: (§5) The present inventors performed in vitro experiments on the strain cultured in Example 2 above. Specifically, each strain was prepared to be 1×10^8 per 1 mL of medium, and 1 mL was dispensed into tubes. The experiments were performed three times according to the experimental period, and 0.74 MBq of [^18F]FDS synthesized as described above was injected and incubated for 2 hours in the incubator. After 2 hours, each strain was divided into a filterable 1.5 mL centrifuge tube, and the fungi and medium were separated through centrifugation. After washing twice with phosphate buffer, the filtered fungi were collected and the intake was measured with a gamma counter.

Rhizopus sp. = assay: In vitro uptake of [^18F]FDS by cultured strains (gamma counter); type: cell-based, Rhizopus arrhizus; conditions: 1×10^8 per mL, 0.74 MBq, incubated 2 hours (FIG. 3)
Experimental: as §3, §4

A. fumigatus = assay: as above; type: cell-based, Aspergillus fumigatus; conditions: 1×10^8 per mL, 0.74 MBq, incubated 2 hours (FIG. 3)
Experimental: as §3, §4

[2] = system: gram-negative bacterial strains; assay: In vitro uptake of [^18F]FDS by bacterial strains; type: cell-based; conditions: gram-negative bacterial strains (FIG. 3)
Experimental: as §5
(§6) The present inventors confirmed the uptake ability of [^18F]FDS of the present invention using fungal strain cultivation.

[3] = system: gram-positive bacterial strains; assay: In vitro uptake of [^18F]FDS by bacterial strains; type: cell-based; conditions: gram-positive bacterial strains (FIG. 3)
Experimental: as §5, §6

[4] = system: A. fumigatus muscle infection; assay: microPET imaging in A. fumigatus muscle infection small animal model; type: in vivo; conditions: Balb/c mice, A. fumigatus forelimb muscle infection; 7.4 MBq tail vein; image 2 hours after injection; compared to the control group (FIGS. 5-7)
Experimental: as §1, with “produced” for “created”, “muscle” for “lung”, “100” for “70”, “1.5×10^8” for “1.5×10^7”, “into” for “through”, “forelimb muscle of the mice.” for “nasal cavity.”
as §2

## OC[C@@H](O)[C@@H](O)[C@H](O)[C@@H]([18F])CO [[^18F]FDS, 2-deoxy-2-[^18F]fluorosorbitol]
[1]
  uptake of [^18F]FDS in the lungs (microPET): very high selective uptake
C. albicans
  uptake of [^18F]FDS: very high selective uptake
fungi
  degree of uptake of [^18F]FDS by fungi relative to bacterial uptake: more than 10 times
Rhizopus sp.
  uptake of [^18F]FDS: very high selective uptake
A. fumigatus
  uptake of [^18F]FDS: very high selective uptake
[2]
  uptake of [^18F]FDS: showed uptake
[3]
  uptake of [^18F]FDS: did not show no uptake
[4]
  uptake of [^18F]FDS at the muscle infection site (microPET): very high selective uptake
